For assay [1], the system named is Colorectal cancer tumor cells. The assay can be described thus: MTT proliferation inhibition, colorectal cancer cells. The assay is classed as cell-based, human. The arrangement: concentration or dose not given beside the values. The note with it: 48 h. The method, boiled down: (§1)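 Tumour cells plated at 2×10^4 cells/mL, attached overnight, then exposed to dilutions of mPEG-HM-1 for 48 h at 37 °C, 5% CO2. MTT added 4 h, formazan dissolved in DMSO, absorbance 570/630 nm; growth inhibition = 1 − treated/untreated, three independent repeats, mean±SD.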

Assay [2] concerns Ovarian cancer tumor cells. The assay can be described thus: MTT proliferation inhibition, ovarian cancer cells. Also noted: concentration or dose not given beside the values. The conditions noted are these: 48 h. The class given is cell-based, human. The essentials: as §1
Assay [3] concerns corneal neovascularization in BALB/c mice. The assay can be described thus: Alkali-burn corneal neovascularization in BALB/c mice (CD31 microvessel density). The class given is in vivo, mouse. The note with it: for Inhibition rate: corneal microvessel density vs control; for Inhibition rate / MVD: day 14 after alkali burn, intravitreal once a day for 1 week; for MVD: microvessel density (CD31) of cornea. The essentials: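 Mice received mPEG-HM-1 or saline by intravitreal injection once daily for 1 week after corneal alkali burn, with slit-lamp observation at 1, 7 and 14 d. At day 14, 8 μm frozen corneal sections were stained with anti-CD31, and microvessels per unit corneal area were counted; mean±SD of 3 independent tests, t test.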

The next assay relates to Hemangioma tumor cells. The assay can be described thus: MTT proliferation inhibition, hemangioma cells. The conditions noted are these: 48 h. The class given is cell-based, human. Also noted: concentration or dose not given beside the values. The essentials:
as §1

The subject of assay [4] is choroidal neovascularization in BN rats. The assay is described as follows: Laser-induced choroidal neovascularization in BN rats (FFA). The assay is classed as in vivo, rat. The essentials:
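Male BN rats (6–8 weeks) received 8 laser photocoagulation spots per eye around the optic disc (647.1 nm, 350 mW, 50 μm, 0.05 s). Confirmed models, 5 per group, were given saline or PEG-modified HM-1 intravitreally once daily for 1 week. FFA was done 3, 7, 14 and 28 days after dosing.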

A further assay concerns mouse spleen lymphocytes. The assay is described as follows: ConA-stimulated mouse spleen lymphocyte proliferation (MTT). The class given is cell-based. The conditions noted are these: ConA 5 μg/mL, 48 h. The method, boiled down: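 Spleen cells, red cells lysed with Tris-NH4Cl, plated at 5×10^6/mL in RPMI 1640 with 10% calf serum alongside blank, ConA and Dex (0.02 mg/mL) groups. After 48 h at 37° C., MTT added for 4 h, formazan dissolved in DMSO, OD read at 570 nm, 5 replicates.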

Where [5] appears, read: Day 3 after administration, 100 μg intravitreally once daily for 1 week (Table 53).
[6] abbreviates: Day 3 after administration, 100 μg intravitreally once daily for 1 week (Table 53), total spots 290-296 by table.
Setting [7] is: Day 7, 100 μg intravitreally once daily for 1 week (Table 53).
Where [8] appears, read: Day 7, 100 μg intravitreally once daily for 1 week (Table 53), total spots 182-188 by table.
Where [9] appears, read: Day 14, 100 μg intravitreally once daily for 1 week (Table 53).
Setting [10] is: Day 14, 100 μg intravitreally once daily for 1 week (Table 53), total spots 132-138 by table.
Where [11] appears, read: Day 28, 100 μg intravitreally once daily for 1 week (Table 53).
Where [12] appears, read: Day 28, 100 μg intravitreally once daily for 1 week (Table 53), total spots 67-71 by table.

Marks after values point to notes of the source that are not given here. Where no end group is shown, it is not given here.

In the case of “mPEG-SC20k-Arg-Gly-Ala-Asp-Arg-Ala-Gly-Gly-Gly-Gly-Arg-Gly-Asp ({mPEG‑SC 20 kDa}-RGADRAGGGGRGD) [mPEG-SC20k-HM-1]”, the “rate of growth inhibition” value in assay [1] was 66.19 ± 20.58%; in assay [2] it was 70.94 ± 20.65%; in the assay with Hemangioma tumor cells, 55.63 ± 18.30%. In assay [3], this substance came in with an Inhibition rate of 46.53%. Besides, in assay [3], the MVD was 35.68 ± 4.842**. In addition, the “CNV Incidence rate” value is on record as 51.35% in assay [4] (setting [5]), 48.94% in assay [4] (setting [7]), 45.93% in assay [4] (setting [9]) and 41.79% in assay [4] (setting [11]). The “leakage Spots #” value in assay [4] (setting [6]) is on record as 152; in assay [4] (setting [8]), 92; in assay [4] (setting [10]) it was 62; in assay [4] (setting [12]), 28. The “A570 nm/A630 nm” value in the assay on mouse spleen lymphocytes (20 μg/mL) worked out at 0.6213 ± 0.0996; with mouse spleen lymphocytes (40 μg/mL), 0.5444 ± 0.1120; in the assay on mouse spleen lymphocytes (80 μg/mL), 0.4741 ± 0.1270. Also, the “Inhibition Rate of spleen lymphocyte proliferation” value is 9.91% with mouse spleen lymphocytes (20 μg/mL), 21.06% in the assay on mouse spleen lymphocytes (40 μg/mL) and 31.25% with mouse spleen lymphocytes (80 μg/mL).

“mPEG-SC40k-Arg-Gly-Ala-Asp-Arg-Ala-Gly-Gly-Gly-Gly-Arg-Gly-Asp ({mPEG‑SC 40 kDa}-RGADRAGGGGRGD) [mPEG-SC40k-HM-1]”: the “rate of growth inhibition” value in assay [1] amounted to 62.45 ± 19.22%; in assay [2] it was 68.46 ± 13.19%; with Hemangioma tumor cells, 53.36 ± 15.09%. The substance also came in with an Inhibition rate in assay [3] of 43.48%. In addition, the MVD in assay [3] is on record as 37.72 ± 4.153**. The “CNV Incidence rate” value in assay [4] (Day 3 after administration, 200 μg intravitreally once daily for 1 week (Table 53)) worked out at 50.68%; in assay [4] (Day 7, 200 μg intravitreally once daily for 1 week (Table 53)) it was 50.00%; in assay [4] (Day 14, 200 μg intravitreally once daily for 1 week (Table 53)), 44.44%; in assay [4] (Day 28, 200 μg intravitreally once daily for 1 week (Table 53)) it was 43.28%. Further, the “leakage Spots #” value came out at 150 in assay [4] (Day 3 after administration, 200 μg intravitreally once daily for 1 week (Table 53), total spots 290-296 by table); 94 in assay [4] (Day 7, 200 μg intravitreally once daily for 1 week (Table 53), total spots 182-188 by table); 60 in assay [4] (Day 14, 200 μg intravitreally once daily for 1 week (Table 53), total spots 132-138 by table); 29 in assay [4] (Day 28, 200 μg intravitreally once daily for 1 week (Table 53), total spots 67-71 by table). For the same substance, the entries for the “A570 nm/A630 nm” value in the assay with mouse spleen lymphocytes (40 μg/mL), in the assay with mouse spleen lymphocytes (80 μg/mL) and in the assay on mouse spleen lymphocytes (160 μg/mL) were 0.6212 ± 0.0972, 0.5493 ± 0.1056 and 0.4794 ± 0.1214, respectively. Also, the results for the “Inhibition Rate of spleen lymphocyte proliferation” value in the assay on mouse spleen lymphocytes (40 μg/mL), in the assay on mouse spleen lymphocytes (80 μg/mL) and in the assay with mouse spleen lymphocytes (160 μg/mL) were 9.92%, 20.34% and 30.48%, respectively.

In the case of “mPEG-bALD5k-Arg-Gly-Ala-Asp-Arg-Ala-Gly-Gly-Gly-Gly-Arg-Gly-Asp ({mPEG‑bALD 5 kDa}-RGADRAGGGGRGD) [mPEG-bALD5k-HM-1]”, the figures for the “rate of growth inhibition” value (in assay [1]; in assay [2]; with Hemangioma tumor cells) were 59.35 ± 12.64%, 66.76 ± 18.59% and 40.29 ± 12.16%, respectively. Besides, in assay [3], the Inhibition rate is listed as 43.10%. In assay [3], the MVD is recorded as 37.97 ± 3.914*. Also, the “CNV Incidence rate” value in assay [4] (Day 3 after administration, 25 μg intravitreally once daily for 1 week (Table 53)) is reported as 55.29%; in assay [4] (Day 7, 25 μg intravitreally once daily for 1 week (Table 53)), 52.43%; in assay [4] (Day 14, 25 μg intravitreally once daily for 1 week (Table 53)), 47.10%; in assay [4] (Day 28, 25 μg intravitreally once daily for 1 week (Table 53)), 46.38%. For the same substance, the “leakage Spots #” value is recorded as 162 in assay [4] (Day 3 after administration, 25 μg intravitreally once daily for 1 week (Table 53), total spots 290-296 by table); 97 in assay [4] (Day 7, 25 μg intravitreally once daily for 1 week (Table 53), total spots 182-188 by table); 65 in assay [4] (Day 14, 25 μg intravitreally once daily for 1 week (Table 53), total spots 132-138 by table); 32 in assay [4] (Day 28, 25 μg intravitreally once daily for 1 week (Table 53), total spots 67-71 by table). Moreover, the “A570 nm/A630 nm” value with mouse spleen lymphocytes (5 μg/mL) is given as 0.6257 ± 0.1022; with mouse spleen lymphocytes (10 μg/mL) it was 0.5645 ± 0.1114; in the assay on mouse spleen lymphocytes (20 μg/mL), 0.4957 ± 0.1286. Further, the “Inhibition Rate of spleen lymphocyte proliferation” value was determined as 9.82% in the assay with mouse spleen lymphocytes (5 μg/mL), 18.64% in the assay on mouse spleen lymphocytes (10 μg/mL) and 28.56% in the assay on mouse spleen lymphocytes (20 μg/mL).

Regarding “mPEG-bALD10k-Arg-Gly-Ala-Asp-Arg-Ala-Gly-Gly-Gly-Gly-Arg-Gly-Asp ({mPEG‑bALD 10 kDa}-RGADRAGGGGRGD) [mPEG-bALD10k-HM-1]”, the figures for the “rate of growth inhibition” value (in assay [1]; in assay [2]; in the assay on Hemangioma tumor cells) were 75.62 ± 18.03%, 80.35 ± 20.53% and 55.28 ± 12.30%, respectively. Also, in assay [3] (BALB/c mice, alkali burn, intravitreal injection once a day for 1 week), the “inhibition rate of corneal neovascularization” value amounted to 52.03%. Also, the Inhibition rate in assay [3] was determined as 52.03%. Further, the MVD in assay [3] is 32.01 ± 5.738**. The “CNV Incidence rate” value in assay [4] (Day 3 after administration, 50 μg intravitreally once daily for 1 week (Table 53)) was found to be 48.46%; in assay [4] (Day 7, 50 μg intravitreally once daily for 1 week (Table 53)), 46.49%; in assay [4] (Day 14, 50 μg intravitreally once daily for 1 week (Table 53)) it was 42.03%; in assay [4] (Day 28, 50 μg intravitreally once daily for 1 week (Table 53)), 39.13%. The “leakage Spots #” value came out at 142 in assay [4] (Day 3 after administration, 50 μg intravitreally once daily for 1 week (Table 53), total spots 290-296 by table); 86 in assay [4] (Day 7, 50 μg intravitreally once daily for 1 week (Table 53), total spots 182-188 by table); 58 in assay [4] (Day 14, 50 μg intravitreally once daily for 1 week (Table 53), total spots 132-138 by table); 27 in assay [4] (Day 28, 50 μg intravitreally once daily for 1 week (Table 53), total spots 67-71 by table). The “A570 nm/A630 nm” value in the assay with mouse spleen lymphocytes (10 μg/mL) was 0.6179 ± 0.1049; in the assay with mouse spleen lymphocytes (20 μg/mL) it was 0.5469 ± 0.1122; in the assay with mouse spleen lymphocytes (40 μg/mL) it was 0.4666 ± 0.1040. For the same substance, the results for the “Inhibition Rate of spleen lymphocyte proliferation” value in the assay on mouse spleen lymphocytes (10 μg/mL), in the assay with mouse spleen lymphocytes (20 μg/mL) and in the assay with mouse spleen lymphocytes (40 μg/mL) were 10.94%, 21.18% and 32.75%, respectively.

In the case of “mPEG-bALD20k-Arg-Gly-Ala-Asp-Arg-Ala-Gly-Gly-Gly-Gly-Arg-Gly-Asp ({mPEG‑bALD 20 kDa}-RGADRAGGGGRGD) [mPEG-bALD20k-HM-1]”, the “rate of growth inhibition” value in assay [1] was determined as 70.73 ± 16.92%; in assay [2], 75.65 ± 20.09%; in the assay with Hemangioma tumor cells it was 50.31 ± 14.00%. Further, the Inhibition rate in assay [3] turned out to be 47.84%. In addition, in assay [3], the MVD is 34.81 ± 6.817**. The “CNV Incidence rate” value in assay [4] (setting [5]) was 51.54%; in assay [4] (setting [7]), 49.19%; in assay [4] (setting [9]), 45.65%; in assay [4] (setting [11]), 40.58%. The “leakage Spots #” value in assay [4] (setting [6]) turned out to be 151; in assay [4] (setting [8]), 91; in assay [4] (setting [10]) it was 63; in assay [4] (setting [12]) it was 28. The “A570 nm/A630 nm” value with mouse spleen lymphocytes (20 μg/mL) came to 0.6104 ± 0.1005; in the assay with mouse spleen lymphocytes (40 μg/mL), 0.4988 ± 0.1173; in the assay with mouse spleen lymphocytes (80 μg/mL), 0.4453 ± 0.1054. In addition, the “Inhibition Rate of spleen lymphocyte proliferation” value is listed as 12.02% in the assay on mouse spleen lymphocytes (20 μg/mL), 28.10% with mouse spleen lymphocytes (40 μg/mL) and 35.82% in the assay with mouse spleen lymphocytes (80 μg/mL).

These data come from patent publication US10869931B2, “Polyethylene glycol-modified angiogenesis inhibitor HM-1 and application thereof” (NANJING ANJI BIOLOGICAL TECHNOLOGY CO.,LTD, priority 2016, dated 2020).
